Where two headings read alike, the source gives them in different places.
Tests used:
[1] = test system: Nilaparvata lugens (brown plant hopper, BPH); assay: Activity against Nilaparvata lugens (brown plant hopper, BPH) on sprayed rice plants, % mortality (Abbott); type: in vivo; details: 168 h
Description: Eight replicates (pots with rice plants) were sprayed with respective test solutions. Test solutions contained the formulated test compound and the PGR Moddus® at different ratios. 4 pots were infested with plant hopper nymphs right after application. 7d after application BPH mortality and phytotoxicity were evaluated.

[2] = test system: Rhopalosiphum padi (cereal aphid); assay: Activity against Rhopalosiphum padi (cereal aphid) on sprayed wheat plants, % mortality (Abbott)
From the text: Activity Against Rhopalosiphum padi (Cereal Aphid) and Crop Safety
The experiment was divided into two parts, one half of the plants was used for the aphid bioassay the other half was not infested with aphids and kept for plant growth evaluation. One replicate consisted of 4 wheat plants per pot. 5 replicates were infested with a mixed population of cereal aphids 6 days after seeding. 9 days after seeding all wheat plants (10 replicates) were sprayed with respective test solutions. Test solutions contained the formulated test compound (25 ppm), the adjuvant Mero (0.1% v/v), and the plant growth regulator (PGR) CCC (chlormequat-chloride, Cyclocel®) or trinexapac ethyl (Moddus®). 6 and 17d after application aphid mortality and phytotoxicity were evaluated. Efficacy was calculated with the aid of Abbott's formula. Assessment on phytotoxicity was done by counting the number of leaves bent down due to necrosis per pot. Additionally the average plant height per replicate was measured.

SMILES	melting point	also measured
CON1CCC2(CC1)C(O)=C(c1c(C)cc(Cl)cc1C)C(=O)N2OC	88 to 92 °C	
COCCON1C(=O)C(c2cc(Br)c(C)cc2C)=C(O)C12CCN(OC)CC2	63 to 64 °C	
COCON1C(=O)C(c2c(C)cc(-c3ccc(Cl)cc3)cc2C)=C(O)C12CCN(OC)CC2	128 °C (dec.)	
COCON1C(=O)C(c2cc(C)ccc2C)=C(OC(=O)CC(C)(C)C)C12CCN(OC)CC2	93 to 95 °C	
COCON1C(=O)C(c2c(F)ccc(C)c2Cl)=C(O)C12CCN(OC)CC2	155 to 158 °C	
CON1CCC2(CC1)C(O)=C(c1c(C)cc(Cl)cc1C)C(=O)N2OC1CCCO1 (centres unmarked)	137 to 139 °C	
CON1CCC2(CC1)C(O)=C(c1cc(C)ccc1C)C(=O)N2C	121 to 123 °C	
CCOC(=O)OC1=C(c2cc(C)c(C)cc2Cl)C(=O)N(C)C12CCN(OC)CC2	149 to 150 °C	
COCON1C(=O)C(c2c(C)cc(Cl)cc2C)=C(O)C12CCN(OC)CC2	176 to 178 °C	
COCCON1C(=O)C(c2c(C)cc(Cl)cc2C)=C(O)C12CCN(OC)CC2	161 to 164 °C	
CON1CCC2(CC1)C(O)=C(c1cc(C)c(C)cc1C)C(=O)N2C	183 to 186 °C	
CON1CCC2(CC1)C(O)=C(c1cc(C)c(C)cc1Cl)C(=O)N2C	191 to 192 °C	
CON1CCC2(CC1)C(O)=C(c1c(C)cc(C)cc1C)C(=O)N2OCCOC1CCCCO1 (centres unmarked)	135 to 137 °C	
CCOC(=O)OC1=C(c2c(C)cc(Cl)cc2C)C(=O)N(C)C12CCN(OC)CC2 [P1.29]		mortality at 12.5 ppm ([1]; read-out: Efficacy (% mortality) against brown plant hopper (Nilaparvata lugens), 12.5 ppm AI with Moddus, ratio AI:PGR 0.9:1, 7 d after application): 80%; mortality at 12.5 ppm ([1]; read-out: Efficacy (% mortality) against brown plant hopper (Nilaparvata lugens), 12.5 ppm AI, no PGR, 7 d after application): 98%; mortality at 25 ppm ([1]; read-out: Efficacy (% mortality) against brown plant hopper (Nilaparvata lugens), 25 ppm AI with Moddus, ratio AI:PGR 1.9:1, 7 d after application): 97%; mortality at 25 ppm ([1]; read-out: Efficacy (% mortality) against brown plant hopper (Nilaparvata lugens), 25 ppm AI, no PGR, 7 d after application): 98%; mortality at 50 ppm ([1]; read-out: Efficacy (% mortality) against brown plant hopper (Nilaparvata lugens), 50 ppm AI with Moddus, ratio AI:PGR 1.25:1, 7 d after application): 98%; mortality at 50 ppm ([1]; read-out: Efficacy (% mortality) against brown plant hopper (Nilaparvata lugens), 50 ppm AI, no PGR, 7 d after application): 100%; mortality at 100 ppm ([1]; read-out: Efficacy (% mortality) against brown plant hopper (Nilaparvata lugens), 100 ppm AI with Moddus, ratio AI:PGR 7.5:1, 7 d after application): 100%; mortality at 100 ppm ([1]; read-out: Efficacy (% mortality) against brown plant hopper (Nilaparvata lugens), 100 ppm AI, no PGR, 7 d after application): 100%; mortality at 200 ppm ([1]; read-out: Efficacy (% mortality) against brown plant hopper (Nilaparvata lugens), 200 ppm AI with Moddus, ratio AI:PGR 15:1, 7 d after application): 100%; mortality at 200 ppm ([1]; read-out: Efficacy (% mortality) against brown plant hopper (Nilaparvata lugens), 200 ppm AI, no PGR, 7 d after application, Abbott): 100%
CCOC(=O)OC1=C(c2c(C)cc(C)cc2C)C(=O)N(C)C12CCN(OC)CC2 [P1.2, Carbonic acid ethyl ester 8-methoxy-1-methyl-2-oxo-3-(2,4,6-trimethyl-phenyl)-1,8-diaza-spiro[4.5]dec-3-en-4-yl ester]		Efficacy (% mortality) against cereal aphids (Rhopalosiphum padi), 6 DAA ([2]; test compound 25 ppm + Mero 0.1% v/v, tank mix with PGR Cycocel, ratio AI:PGR 1:20, 6 DAA): 97%; Efficacy (% mortality) against cereal aphids (Rhopalosiphum padi), 17 DAA ([2]; test compound 25 ppm + Mero 0.1% v/v, tank mix with PGR Cycocel, ratio AI:PGR 1:20, 17 DAA): 93%; Efficacy (% mortality) against cereal aphids (Rhopalosiphum padi), 6 DAA ([2]; test compound 25 ppm + Mero 0.1% v/v, tank mix with PGR Moddus, ratio AI:PGR 1:10, 6 DAA): 94%; Efficacy (% mortality) against cereal aphids (Rhopalosiphum padi), 17 DAA ([2]; test compound 25 ppm + Mero 0.1% v/v, tank mix with PGR Moddus, ratio AI:PGR 1:10, 17 DAA): 90%; Efficacy (% mortality) against cereal aphids (Rhopalosiphum padi), 6 DAA ([2]; test compound 25 ppm + adjuvant Mero 0.1% v/v, no PGR, 6 days after application, Abbott): 97%; Efficacy (% mortality) against cereal aphids (Rhopalosiphum padi), 17 DAA ([2]; test compound 25 ppm + adjuvant Mero 0.1% v/v, no PGR, 17 days after application, Abbott): 70%; mortality at 12.5 ppm ([1]; 12.5 ppm AI with Moddus, ratio AI:PGR 0.9:1, 7 d after application, read-out: Efficacy (% mortality) against brown plant hopper (Nilaparvata lugens)): 5%; mortality at 12.5 ppm ([1]; 12.5 ppm AI, no PGR, 7 d after application, read-out: Efficacy (% mortality) against brown plant hopper (Nilaparvata lugens)): 65%; mortality at 25 ppm ([1]; 25 ppm AI with Moddus, ratio AI:PGR 1.9:1, 7 d after application, read-out: Efficacy (% mortality) against brown plant hopper (Nilaparvata lugens)): 10%; mortality at 25 ppm ([1]; 25 ppm AI, no PGR, 7 d after application, read-out: Efficacy (% mortality) against brown plant hopper (Nilaparvata lugens)): 37%; mortality at 50 ppm ([1]; 50 ppm AI with Moddus, ratio AI:PGR 1.25:1, 7 d after application, read-out: Efficacy (% mortality) against brown plant hopper (Nilaparvata lugens)): 33%; mortality at 50 ppm ([1]; 50 ppm AI, no PGR, 7 d after application, read-out: Efficacy (% mortality) against brown plant hopper (Nilaparvata lugens)): 62%; mortality at 100 ppm ([1]; 100 ppm AI with Moddus, ratio AI:PGR 7.5:1, 7 d after application, read-out: Efficacy (% mortality) against brown plant hopper (Nilaparvata lugens)): 77%; mortality at 100 ppm ([1]; 100 ppm AI, no PGR, 7 d after application, read-out: Efficacy (% mortality) against brown plant hopper (Nilaparvata lugens)): 80%; mortality at 200 ppm ([1]; 200 ppm AI with Moddus, ratio AI:PGR 15:1, 7 d after application, read-out: Efficacy (% mortality) against brown plant hopper (Nilaparvata lugens)): 87%; mortality at 200 ppm ([1]; 200 ppm AI, no PGR, 7 d after application, Abbott, read-out: Efficacy (% mortality) against brown plant hopper (Nilaparvata lugens)): 90%
CON1CCC2(CC1)C(O)=C(c1c(C)cc(C)cc1C)C(=O)N2OCC1CCCCC1	169 to 172 °C	
CON1CCC2(CC1)C(O)=C(c1c(C)cc(C)cc1C)C(=O)N2CC1CC1	223 to 225 °C	

More lines, main results first:

melting point	SMILES	also measured
116 to 119 °C	CCOC(=O)OC1=C(c2c(F)ccc(C)c2Cl)C(=O)N(OCOC)C12CCN(OC)CC2	
158 to 159 °C	CCOC(=O)OC1=C(c2cc(C)c(C)cc2Br)C(=O)N(C)C12CCN(OC)CC2	
91 to 93 °C	COCON1C(=O)C(c2cc(C)ccc2C)=C(OC)C12CCN(OC)CC2	
96 to 110 °C	CCOC(=O)OC1=C(c2cc(C)ccc2C)C(=O)N(C)C12CCN(OC)CC2	
182 to 183 °C	CON1CCC2(CC1)C(O)=C(c1cc(Br)c(C)cc1C)C(=O)N2C	
218 to 221 °C	CCN1C(=O)C(c2c(C)cc(C)cc2C)=C(O)C12CCN(OC)CC2	
71 to 74 °C	COCCON1C(=O)C(c2cc(Br)c(F)cc2C)=C(O)C12CCN(OC)CC2	
122 to 125 °C	CCOC(=O)OC1=C(c2c(C)cc(Cl)cc2C)C(=O)N(OC)C12CCN(OC)CC2	
86 to 87 °C	CON1CCC2(CC1)C(O)=C(c1cc(Br)c(C)cc1C)C(=O)N2OC	
191 to 193 °C	CON1CCC2(CC1)C(O)=C(c1cc(C)c(C)cc1Br)C(=O)N2C	
101 to 103 °C	CCOC(=O)OC1=C(c2c(C)cc(C)cc2C)C(=O)N(CC)C12CCN(OC)CC2	
64 to 67 °C	COCON1C(=O)C(c2cc(Br)c(F)cc2C)=C(O)C12CCN(OC)CC2	

From patent US9018135B2, “Pesticidal compositions” (Syngenta Participations AG, priority 2010, dated 2015)
